This is an account of results in PubChem BioAssay AID328 (DTP/NCI, 2004).

The test system of this experiment is BDF1 mice, P388 leukemia ip, median survival T/C. Briefly: NCI In Vivo Anticancer Drug Screen. Data for tumor model P388 Leukemia (intraperitoneal) in B6D2F1 (BDF1) mice. The following applies: endpoint: median survival time, higher = longer survival. In a few lines:
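Vehicle-dosed animals serve as the reference; survival of compound-dosed, tumour-implanted mice is divided by it.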

Setting [1] is: dose: 50.0 mg/kg/injection, schedule: Q01DX009 (ip), vehicle: saline.
The mark [2] stands for this setting: dose: 100.0 mg/kg/injection, schedule: Q01DX009 (ip), vehicle: saline.
Where [3] appears, read: dose: 200.0 mg/kg/injection, schedule: Q01DX009 (ip), vehicle: saline.
[4] abbreviates: dose: 100.0 mg/kg/injection, schedule: Q01DX009 (ip), vehicle: Klucel (hydroxypropylcellulose) (HPC).
[5] abbreviates: dose: 100.0 mg/kg/injection, schedule: Q04DX003 (ip), vehicle: Klucel (hydroxypropylcellulose) (HPC).
The mark [6] stands for this setting: dose: 200.0 mg/kg/injection, schedule: Q04DX003 (ip), vehicle: Klucel (hydroxypropylcellulose) (HPC).
[7] abbreviates: dose: 400.0 mg/kg/injection, schedule: Q01DX009 (ip), vehicle: Klucel (hydroxypropylcellulose) (HPC).
Setting [8] is: dose: 400.0 mg/kg/injection, schedule: Q04DX003 (ip), vehicle: Klucel (hydroxypropylcellulose) (HPC).

Where “and” joins values, the source holds several entries; their conditions need not be identical. Equal entries are not always repeated. Inconclusive results and toxic doses are left out.

On to `O=C1C=CC(=O)N1c1ccc([N+](=O)[O-])cc1`, for which the T/C (dose: 5.25 mg/kg/injection, schedule: Q01DX009 (ip), vehicle: Klucel (hydroxypropylcellulose) (HPC)) is 90 % of control; the T/C (dose: 7.5 mg/kg/injection, schedule: Q04DX003 (ip), vehicle: Klucel (hydroxypropylcellulose) (HPC)) is 116 % of control; the T/C (dose: 10.5 mg/kg/injection, schedule: Q01DX009 (ip), vehicle: Klucel (hydroxypropylcellulose) (HPC)) is 90 % of control; the T/C (dose: 15.0 mg/kg/injection, schedule: Q04DX003 (ip), vehicle: Klucel (hydroxypropylcellulose) (HPC)) is 95 % of control.
On to `Cc1c2cc3c(c1O)C(=O)CC(O3)c1ccc(O)c(c1)-c1ccc(O)c(c1)C(=O)OCC1OC(O2)C(O)C(O)C1O` (stereo not drawn), for which the T/C reads like this: (dose: 0.13 mg/kg/injection, schedule: Q01DX009 (ip), vehicle: Klucel (hydroxypropylcellulose) (HPC)) 109 % of control; (dose: 0.25 mg/kg/injection, schedule: Q01DX009 (ip), vehicle: Klucel (hydroxypropylcellulose) (HPC)) 106 % of control; (dose: 0.5 mg/kg/injection, schedule: Q01DX009 (ip), vehicle: Klucel (hydroxypropylcellulose) (HPC)) 112 % of control; (dose: 1.0 mg/kg/injection, schedule: Q01DX009 (ip), vehicle: Klucel (hydroxypropylcellulose) (HPC)) 112 % of control.
As to `Cc1cc(NC(=O)NCc2ccc(N)cc2)ccc1S(=O)(=O)F`, the T/C was 97 % of control (dose: 25.0 mg/kg/injection, schedule: Q01DX009 (ip), vehicle: saline); 109 % of control under setting [1]; 102 % of control (dose: 50.0 mg/kg/injection, schedule: Q04DX003 (ip), vehicle: saline); 115 % of control (dose: 75.0 mg/kg/injection, schedule: Q01DX009 (ip), vehicle: saline); 90 % of control and 124 % of control under setting [2]; 102 % of control (dose: 100.0 mg/kg/injection, schedule: Q04DX003 (ip), vehicle: saline). The T/C runs as follows: (dose: 150.0 mg/kg/injection, schedule: Q01DX009 (ip), vehicle: saline) 92 % of control; under setting [3], 106 % of control; (dose: 200.0 mg/kg/injection, schedule: Q04DX003 (ip), vehicle: saline) 100 % of control; (dose: 400.0 mg/kg/injection, schedule: Q01DX009 (ip), vehicle: saline) 99 % of control; (dose: 400.0 mg/kg/injection, schedule: Q04DX003 (ip), vehicle: saline) 97 % of control.
`C/C=C1/C(=O)O[C@]23C=C[C@@H]4C(C(=O)OC)=CO[C@H](O[C@@H]12)[C@@H]43`: the T/C reads like this: (dose: 0.27 mg/kg/injection, schedule: Q01DX009 (ip), vehicle: saline) 110 % of control; (dose: 0.55 mg/kg/injection, schedule: Q01DX009 (ip), vehicle: saline) 110 % of control; (dose: 1.1 mg/kg/injection, schedule: Q01DX009 (ip), vehicle: saline) 110 % of control; (dose: 2.2 mg/kg/injection, schedule: Q01DX009 (ip), vehicle: saline) 110 % of control; (dose: 165.0 micrograms/kg/injection, schedule: Q01DX009 (ip), vehicle: Klucel (hydroxypropylcellulose) (HPC)) 115 % of control; (dose: 310.0 micrograms/kg/injection, schedule: Q01DX009 (ip), vehicle: Klucel (hydroxypropylcellulose) (HPC)) 115 % of control. Moreover, for the setting “dose: 1250.0 micrograms/kg/injection, schedule: Q01DX009 (ip), vehicle: Klucel (hydroxypropylcellulose) (HPC)”, the T/C is 115 % of control.
In the case of `CC(C)NCC(O)COc1ccc2ncsc2c1` (stereo not drawn), the T/C under setting [1] is 108 % of control, the T/C under setting [2] was 110 % of control and the T/C under setting [3] was 91 % of control.
Regarding `CC1(C)COC(C)(C(=O)NN)OC1`, the T/C reads like this: (dose: 100.0 mg/kg/injection, schedule: Q04DX002 (ip), vehicle: saline) 104 % of control; (dose: 200.0 mg/kg/injection, schedule: Q04DX002 (ip), vehicle: saline) 101 % of control; (dose: 400.0 mg/kg/injection, schedule: Q04DX002 (ip), vehicle: saline) 92 % of control.
As for `COc1ccc(OC)c2c1C(SC)C(=O)N2C` (stereo not drawn), the T/C runs as follows: (dose: 50.0 mg/kg/injection, schedule: Q04DX002 (ip), vehicle: saline with Tween-80) 100 % of control; (dose: 100.0 mg/kg/injection, schedule: Q04DX002 (ip), vehicle: saline with Tween-80) 100 % of control; (dose: 200.0 mg/kg/injection, schedule: Q04DX002 (ip), vehicle: saline with Tween-80) 107 % of control.
As to `CC(=O)Nc1ccc(N=Nc2ccccc2)cc1F`, the T/C was 120 % of control under setting [4]; 104 % of control under setting [5]; 108 % of control under setting [6]; 120 % of control under setting [7]; 95 % of control under setting [8].
As for `CCCCCCC(O)CCc1ccccc1` (stereo not drawn), the T/C by setting is: (dose: 100.0 mg/kg/injection, schedule: Q01DX001 (ip), vehicle: Klucel (hydroxypropylcellulose) (HPC)) 100 % of control; (dose: 200.0 mg/kg/injection, schedule: Q01DX001 (ip), vehicle: Klucel (hydroxypropylcellulose) (HPC)) 95 % of control; (dose: 400.0 mg/kg/injection, schedule: Q01DX001 (ip), vehicle: Klucel (hydroxypropylcellulose) (HPC)) 104 % of control.
With `CCCCCCCCCCCCCCCC(=O)OCc1cc(=O)c(O)co1`, the T/C is, setting by setting: under setting [4], 118 % of control; under setting [5], 104 % of control; (dose: 200.0 mg/kg/injection, schedule: Q01DX009 (ip), vehicle: Klucel (hydroxypropylcellulose) (HPC)) 109 % of control; under setting [6], 104 % of control; under setting [7], 95 % of control; under setting [8], 113 % of control.
With `O/N=C(\c1ccccc1)c1ccccn1`, the T/C (dose: 12.5 mg/kg/injection, schedule: Q01DX009 (ip), vehicle: saline with Tween-80) is 96 % of control; the T/C (dose: 25.0 mg/kg/injection, schedule: Q01DX009 (ip), vehicle: saline with Tween-80) was 90 % of control; the T/C (dose: 50.0 mg/kg/injection, schedule: Q01DX009 (ip), vehicle: saline with Tween-80) is 96 % of control.
Turning to `C[NH-].C[NH-].O=C(O)C(=O)O.[Pt+2]`, the T/C reads like this: (dose: 2.0 mg/kg/injection, schedule: Q04DX003 (ip), vehicle: other) 158 % of control; (dose: 3.0 mg/kg/injection, schedule: Q04DX003 (ip), vehicle: other) 200 % of control; (dose: 4.4 mg/kg/injection, schedule: Q04DX003 (ip), vehicle: other) 154 % of control; (dose: 4.5 mg/kg/injection, schedule: Q04DX003 (ip), vehicle: other) 166 % of control; (dose: 6.7 mg/kg/injection, schedule: Q04DX003 (ip), vehicle: other) 186 % of control; (dose: 10.0 mg/kg/injection, schedule: Q04DX003 (ip), vehicle: other) 190 % of control. Moreover, the T/C (dose: 10.5 mg/kg/injection, schedule: Q04DX003 (ip), vehicle: other) was 170 % of control; the T/C (dose: 12.5 mg/kg/injection, schedule: Q04DX003 (ip), vehicle: other) was 208 % of control; the T/C (dose: 16.0 mg/kg/injection, schedule: Q04DX003 (ip), vehicle: other) is 208 % of control; the T/C (dose: 25.0 mg/kg/injection, schedule: Q04DX003 (ip), vehicle: other) is 250 % of control and 254 % of control and 183 % of control; the T/C (dose: 100.0 mg/kg/injection, schedule: Q04DX003 (ip), vehicle: other) was 90 % of control.
As to `O=S(=O)(NC(=S)Nc1ccc(Cl)cc1)c1ccccc1`, the T/C (dose: 50.0 mg/kg/injection, schedule: Q01DX009 (ip), vehicle: Klucel (hydroxypropylcellulose) (HPC)) was 113 % of control; the T/C under setting [4] is 118 % of control; the T/C (dose: 150.0 mg/kg/injection, schedule: Q04DX003 (ip), vehicle: Klucel (hydroxypropylcellulose) (HPC)) was 113 % of control; the T/C (dose: 225.0 mg/kg/injection, schedule: Q04DX003 (ip), vehicle: Klucel (hydroxypropylcellulose) (HPC)) is 117 % of control; the T/C (dose: 335.0 mg/kg/injection, schedule: Q04DX003 (ip), vehicle: Klucel (hydroxypropylcellulose) (HPC)) is 113 % of control.
